Experimental data published in patent EP0219782A2, “Use of angiotensin-converting enzyme inhibitors in the treatment of atherosclerosis, thrombosis and peripheral vascular disease” (HOECHST AKTIENGESELLSCHAFT, priority 1985, dated 1987).

Assays:
[1] = test system: Plättchenaggregation; test: Chronic study: ex vivo platelet aggregation after 14 days of dosing in conscious rabbits; design: species or system Kaninchen; conditions: 1 mg/kg/d for 14 days; found in all animals
Description: (§1) Plättchenreiches Kaninchenplasma wird wie von Born (Arzneimittel-Forsch. 31, 2012 (1981)) angegeben, gewonnen. Die Plättchenaggregation wird durch Erhöhung des Lichtdurchganges durch eine Küvette, die dieses Plasma enthält, gemessen. Die Plättchenzahl wird durch Verdünnung mit autologem, plättchenarmem Plasma auf 450000/mm^s eingestellt. […] Dagegen wird eine durch 4 pg/ml PGI2 bewirkte Aggregationshemmung gegen Arachidonsäure durch die Verbindung der Formel II in genannten Dosisbereich auf 100% gesteigert.
(§2) Nach 1 Stunde werden die Tiere getötet und plättchenreiches Plasma gewonnen. Die Plättchenaggregation wird wie unter A) beschrieben bestimmt.
Wache Kaninchen erhielten 1 mg/kg/d der Verbindung der Formel II für 14 Tage, dann wurde wie unter 1) beschrieben weiter verfahren.

[2] = test system: Plättchenaggregation; test: Acute study: ex vivo platelet aggregation after a single oral dose in conscious rabbits; design: species or system Kaninchen; conditions: single oral dose 1,0 - 10,0 mg/kg, plasma taken after 1 hour
Description: as §1
Wache Kaninchen erhielten eine einmalige orale Dosis von 1,0 - 10,0 mg/kg der Verbindung der Formel II.
as §2

[3] = test system: Plättchenaggregation; test: Platelet aggregation in platelet-rich rabbit plasma in vitro (light transmission, Born); assay type: cell-based, Kaninchen
Description: as §1

**Q.** For `CCOC(=O)[C@H](CCc1ccccc1)N[C@@H](C)C(=O)N1[C@H](C(=O)O)C[C@@H]2CCC[C@@H]21` [Formel II, N-(l-S-Carbethoxy-3-phenyl-propyl)-S-alanyl-cis-endo-2-azabicyclo[3.3.0]octan-3-S-carbonsäure], which “durch ADP ausgelöste Plättchenaggregation” value [1] is on record?
**A.** The value was “ausgeprägte Inhibierung”.

**Q.** And the “durch Arachidonsäure ausgelöste Plättchenaggregation” value [1]?
**A.** Its value is “ausgeprägte Inhibierung”.

**Q.** What about the “Aggregation gegenüber ADP” value [2] of the same compound?
**A.** The value was “vermindert”.

**Q.** And the “Aggregation gegenüber Kollagen” value [2]?
**A.** The value was “vermindert”.

**Q.** And the “Potenzierung der PGI2-Wirkung” value [2]?
**A.** Its value is “ebenfalls beobachtet”.

**Q.** And the “Aggregation gegenüber Arachidonsäure” value ([2]; effect especially against Arachidonsäure)?
**A.** Its value is “vermindert”.

**Q.** And the “durch PGI2 bewirkte Aggregationshemmung gegen Arachidonsäure, gesteigert auf” value ([3]; 4 pg/ml PGI2, compound at 0.1-10 pg/ml Plasma)?
**A.** Its value is 100%.

**Q.** And the “Einfluß auf die durch Kollagen ausgelöste Aggregation” value ([3]; 0.1-10 pg/ml Plasma, stimulus 4 pg/ml Kollagen)?
**A.** Its value is “keinen Einfluß”.

**Q.** And the “Einfluß auf die durch Arachidonsäure ausgelöste Aggregation” value ([3]; 0.1-10 pg/ml Plasma, stimulus 0.24 mmol/1 Arachidonsäure)?
**A.** The value was “keinen Einfluß”.

**Q.** What about the “Einfluß auf die durch ADP ausgelöste Aggregation” value ([3]; 0.1-10 pg/ml Plasma, stimulus 5 mmol/1 ADP) of the same compound?
**A.** The value was “keinen Einfluß”.
